Common to all, as to assay type: cell-based, human
The test system of data set [1] is STMN2 transcript. Nature of the data set: qRT-PCR of truncated (cryptic) and full-length STMN2 RNA in patient's motor neurons treated with siTARDBP and ASOs. The settings on record: for STMN2 in TDP-43 depleted neurons: FIG. 93; for cry STMN2 in TDP-43 depleted neurons: FIG. 94; for cryptic STMN2 RNA levels (cryptic splicing) / full-length STMN2 RNA levels: patient's motor neurons treated with siTARDBP, ASO 30 nM to 0.03 nM, qRT-PCR normalized using RNA18S5, relative to NTC. Here is the method: In total, 51 ASOs were screened in the patient's motor neurons for their ability to (1) suppress the generation of truncated STMN2 transcript as well as (2) restore the full-length STMN2 transcript.
In the first experiment the patient's motor neurons were treated with siTARDBP, the patient's motor neurons were then cultured with the various ASOs over a range of concentrations (ranging from 30 nM to 0.03 nM) before extracting total RNA. Extracted RNA was used to synthesize cDNA by reverse transcription. qRT-PCR was used to assess levels for both truncated and full-length STMN2 RNAs normalized using RNA18S5 expression.
In general terms: In qPCR the cycle at which signal appears reflects the starting amount.

Data set [2] deals with STMN2 protein. Nature of the data set: immunoblot of STMN2 protein levels in patient's motor neurons following reduction of TDP-43 by siRNA. As to conditions: patient's motor neurons after TDP-43 reduction by siRNA; compared to NTC / siRNA controls. Here is the method:
For analysis of TDP-43 and STMN2 protein expression levels, d10 MNs were lysed in RIPA buffer (150 mM Sodium Chloride; 1% Triton X-100; 0.5% sodium deoxycholate; 0.1% SDS; 50 mM Tris pH 8.0) containing protease and phosphatase inhibitors (Roche) for 20 min on ice, and centrifuged at high speed. 200 μL of RIPA buffer per well of 24-well culture were routinely used, which yielded ˜20 μg of total protein as determined by BCA (Thermo Scientific). After two washes with RIPA buffer, insoluble pellets were resuspended in 200 μl of UREA buffer (Bio-Rad). For immunoblot assays 2-3 μg of total protein were separated by SDS-PAGE (BioRad), transferred to PDVF membranes (BioRad) and probed with antibodies against TDP-43 (1:1000, ProteinTech Group), GAPDH (1:1000, Millipore) and STMN2 (1:3000, Novus). Insoluble pellets were loaded based on protein concentration of correspondent RIPA-soluble counterparts. The same PDVF membrane was immunoassayed 2-3 times using Restore™ PLUS Western Blot Stripping Buffer (Thermo Scientific). GAPDH levels were used to normalized each sample, and LiCor software was used to quantitate protein band signal.
After establishing and validating that the STMN2 ASOs could affect transcript levels, it was sought to determine if they could also rescue diminished protein levels observed after TDP-43 reduction. The patient's motor neurons were treated with siRNAs and either a nontargeting ASO (NTC) or one of the lead compounds from the screen (FIG. 90, FIG. 97). […] Unlike the cells treated with the non-targeting control ASO (NTC), restoration of STMN2 to the levels of the siRNA controls for the lead candidates was observed.
(Immunoblotting shows a protein as a band on a membrane.)

Data set [3] relates to patient's motor neurons. Nature of the data set: axonal regrowth after axotomy in microfluidic devices, TDP-43 depleted patient's motor neurons. The settings on record: for neurite outgrowth deficits following TDP-43 depletion: FIG. 92; for axon extension from the microchannel (regrowth after injury), mean values / axonal regrowth after injury relative to the non-targeting control ASO: patient's motor neurons treated with siTARDBP, 18 hours after axotomy. The procedure:
Sorted motor neurons were cultured in standard neuron microfluidic devices (SND150, XONA Microfluidics) mounted on glass coverslips coated with 0.1 mg/ml poly-D-lysine (Sigma-Aldrich) and 5 μg/ml laminin (Invitrogen) at a concentration of around 250,000 neurons/device. Axotomy was performed at day 7 of culture by repeated vacuum aspiration and reperfusion of the axon chamber until axons were cut effectively without disturbing cell bodies in the soma compartment.
To test if ASO SJ+94 could rescue axonal regrowth after TDP-43 depletion and injury, the patient's motor neurons were cultured in microfluidic devices that permitted axon growth into a chamber distinct from the neuronal cell bodies (FIG. 91A). Neurons cultured for 7 days in the soma compartment of the device extended axons through the microchannels into the axon chamber. Neurons were treated with siTARDBP and ASO SJ+94 before severing axons without disturbing cell bodies in the soma compartment. The axon extension was then measured from the microchannel to assess regrowth after injury (FIG. 91B, FIG. 91D).

In data set [4] the test system is STMN2 RNA. Nature of the data set: qRT-PCR of full-length STMN2 after proteasome inhibition with MG-132 in patient's motor neurons. The settings on record: patient's motor neurons; MG-132 (1 uM). From the text: It was established that ASO (SJ+94) and ASO (SJ-1) suppressed cryptic splicing of STMN2 and restored full length STMN2 RNA in the patient's motor neurons when there is a reduction in nuclear TDP-43. […] Post-mortem tissue studies have shown that TDP-43 mis-localization and its aggregation in cytoplasm is a hallmark of sporadic ALS. Several groups have reported cytoplasmic aggregation of TDP-43 akin to that observed in post-mortem tissue of sporadic ALS patients occurs in response to pharmacological inhibition of the proteasome (1, 4).

In data set [5] the test system is hMNs. Nature of the data set: neurite outgrowth, Sholl analysis of hMNs. The settings on record: 10 μM; STMN2+/+ and STMN2−/− hMNs. The procedure:
Given the reported role of STMN2 in regulating axonal growth by promoting the dynamic instability of microtubules (77), phenotypic assays were carried out characterizing neurite outgrowth in the STMN2−/− hMNs. After 7 days in culture, sorted hMNs were fixed and stained for β-III-tubulin to label the neuronal processes (FIG. 4E).
Individual Tuj1-positive neurons used for Sholl analyses were randomly selected and imaged using a Nikon Eclipse TE300 with a 40× objective. The neurites were traced using the ImageJ (NIH) plugin NeuronJ (78), and Sholl analysis was performed using the Sholl tool of Fiji (96), quantifying the number of intersections at intervals from the cell body. Statistical analysis was performed by comparing the number of intersections of KO clones with the parental WT line for each 10 μm interval using Prism 6 (Graph Pad, La Jolla, CA, USA). Significance was assessed by a standard Student's t-test, with a p value of p<0.05 considered as significant.

For data set [6], the system named is STMN2 cryptic exon. Nature of the data set: RT-PCR detection of transcripts containing the STMN2 cryptic exon in hMNs treated with proteasome inhibitors.
Method: It was then asked if cryptic exon inclusion could be contributing to decreased STMN2 levels in hMNs after proteasome inhibition. To accomplish this goal, an RT-PCR assay was developed to detect transcripts containing the cryptic exon (FIG. 5F). […] Total RNA was isolated from neurons using RNeasy Mini Kit (Qiagen) according to manufacturer's instructions. A total of 300-1000 ng of total RNA was used to synthesize cDNA by reverse transcription according to the iSCRIPT kit (Bio-rad). RT-PCR was then performed using one cryptic exon-specific primer and then analyzed using the Agilent 2200 Tapestation.
Data set [7] has as its system STMN2. Nature of the data set: STMN2 multiplexed qPCR assay in neurons after TDP-43 reduction by ASO or siRNA. As to conditions: compared with SCR ASO. The text has this: FIGS. 17A-17C show RNA can be readily collected from CSF-derived exosomes and then converted into cDNA to assay for full and cryptic STMN2 transcripts as well as control RNAs for normalization (FIG. 17A). […] STMN2 transcripts are normalized to the house keeping ribosomal subunit RNA18S5. TDP-43 levels were reduced in cultured human neurons using either an antisense oligonucleotide (ASO) to deplete cells of TDP-43 or an siRNAs to induce TDP-43 knockdown. […] Using the validated multiplexed qPCR assay, next RNA was isolated from CSF-derived exosomes using 300 ul patient samples to determine the levels of cryptic STMN2 (n=7 healthy controls, n=2 disease mimics and n=9 ALS patients). […] Note that even in this modest set of samples that the increase in cryptic exon expression in ALS patients was highly significant (P<0.005). […] Finally, there is an interesting “texture” to the patient data with some patients showing high levels of expression and others more normal levels. It is hypothesized that patients with lower levels may either be earlier in their disease or have non-TDP-43 disease.

With “SJ+101: antisense oligonucleotide TTCACATTCATTTCTTCTTAG, fully modified with MOE sugars and phosphorothioate linkages (all 2'-MOE, all phosphorothioate, methylation of C not given here)”, in data set [1], the “STMN2 in TDP-43 depleted neurons” value is given as “restored” and the “cry STMN2 in TDP-43 depleted neurons” value is listed as “reduced”. In addition, the STMN2 protein levels result in data set [2] is given as “increase is significant”. The “neurite outgrowth deficits following TDP-43 depletion” value in data set [3] is “rescued”.
Take “NTC: non-targeting control ASO CCTATAGGACTATCCAGGAA (chemistry not given here) [reference compound]”: the “axon extension from the microchannel (regrowth after injury), mean values” in data set [3] stood at 176 um.
Turning to “SJ+94: antisense oligonucleotide CATTTCTTCTTAGGCAGGCT, fully modified with MOE sugars and phosphorothioate linkages (all 2'-MOE, all phosphorothioate, methylation of C not given here)”, in data set [1], the “STMN2 in TDP-43 depleted neurons” value is given as “restored”, the “cry STMN2 in TDP-43 depleted neurons” value was “reduced”, the “cryptic STMN2 RNA levels (cryptic splicing)” value is on record as “suppress cryptic splicing” and the “full-length STMN2 RNA levels” value is “restore full length STMN2 RNA”. Also, the “full length STMN2 RNA levels compared to non-targeting control ASO (NTC)” value in data set [4] is “significantly higher levels of full length STMN2 RNA”. Besides, the STMN2 protein levels entry in data set [2] is “increase is significant”. In addition, in data set [3], the “neurite outgrowth deficits following TDP-43 depletion” value is listed as “rescued” and the “axonal regrowth after injury relative to the non-targeting control ASO” value is on record as “significantly increased regrowth”.
As to “SJ-1: antisense oligonucleotide AGGTCTTCTGCCGAGTC C, fully modified with MOE sugars and phosphorothioate linkages (antisense AGGTCTTCTGCCGAGTCC; all 2'-MOE, all phosphorothioate, methylation of C not given here)”, in data set [1], the “STMN2 in TDP-43 depleted neurons” value is “restored”, the “cry STMN2 in TDP-43 depleted neurons” value is given as “reduced”, the “cryptic STMN2 RNA levels (cryptic splicing)” value was “suppressing cryptic splicing” and the “full-length STMN2 RNA levels” value is listed as “restoring full length STMN2 RNA”. Further, in data set [4], the “full-length STMN2 RNA levels, higher than non-targeting control ASO (NTC)” value is given as 30%. Besides, the STMN2 protein levels entry in data set [2] is “increase is significant”. For the same compound, in data set [3], the “neurite outgrowth deficits following TDP-43 depletion” value is recorded as “rescued”; the “axon extension from the microchannel (regrowth after injury), mean values” amounted to 243 um; the “axonal regrowth after injury relative to the non-targeting control ASO” value was “significantly increased regrowth”.
For the compound `C[C@@H](N)[C@H]1CC[C@H](C(=O)Nc2ccncc2)CC1` [Y-27632], in data set [5], the “neurite outgrowth (Sholl analysis)” value is reported as “enhancing the outgrowth of the STMN^+/+ line but not the STMN^−/− line”.
Take `CC(C)C[C@H](NC(=O)[C@H](Cc1ccccc1)NC(=O)c1cnccn1)B(O)O` [Bortezomib]: the “transcripts containing the STMN2 cryptic exon (PCR assay)” value in data set [6] is “presence of transcripts containing the STMN2 cryptic exon”.
“TDP-43 ASO: antisense oligonucleotide to deplete cells of TDP-43, AAGGCTTCATATTGTACTTT (chemistry not given here)”: in data set [7], the “relative expression of STMN2 (Exons 3-4)” value is “STMN2 reduction” and the “relative expression of cryptic STMN2” value is “cryptic exon induction”.

The values are drawn from patent US20240011027A1, “METHODS AND COMPOSITIONS FOR RESTORING STMN2 LEVELS” (President and Fellows of Harvard College, priority 2020, published 2024).
